{"source": "patent US8563511B2", "about": "“Treatment of pulmonary hypertension using an agent that inhibits a tissue factor pathway” (University of Rochester, priority 2004, dated 2013)", "key": {"[1]": {"test_system": "Male Sprague Dawley rats", "experiment": "Induction of PAH by MCT after sham surgery or pneumonectomy in young rats", "format": "in vivo, rat", "conditions": "for pulmonary pressure (RVSP, mean PA): FIG. 1", "procedure": "All animal studies were approved by the IACUC at the University of Rochester prior to the initiation of any animal experiments. Male Sprague Dawley rats weighing between 200 and 250 g were shaved and then endotracheally intubated with an 18 G angiocatheter after anesthesia with ketamine and xylazine (70 mg/kg ketamine and 50 mg/kg xylazine delivered intraperitoneal in 0.9% saline). Flunixin was administered 0.1 mg/kg SQ at the beginning of the case to provide 24 hours postoperative analgesia. Animals were ventilated (respiratory rate 70-90, adjusted while monitoring the animal to prevent spontaneous respiratory effort) at 10-12 cc/kg (Harvard Apparatus) and the left chest was prepared with Betadine scrub. The fourth or fifth intercostal space was identified, and an incision was made with care to avoid lung damage while ventilation was briefly interrupted. A rib retractor was used to expose the thoracic cavity, and the lung was lifted gently to expose the hilar structures. Two ligaclips (Ektacon LS200, Johnson & Johnson) were applied proximally before the left lung was cut at the distal hilar structure. A polyethylene tube with holes at the end and cut into the sides was inserted through the sixth intercostal space and laid in the thoracic cavity where the left lung had been. Two absorbable sutures were used to approximate the ribs, and then the muscles and subcutaneous tissue were approximated with an additional layer of sutures. Care was taken to carefully seal the thoracostomy tube with tissue so that the hole would close spontaneously when the thoracostomy tube was removed. Suction was applied to the tubing at the earliest possible time once a seal had been achieved (sometimes before the subcutaneous tissues were closed). Antisedan (Orion) was administered 0.2 mg/kg IM, and the skin was closed with 9 mm Autoclips (Stoelting). The animal was taken off the ventilator and monitored for spontaneous respirations while suction was applied to the thoracostomy tube. The rat was required to make significant respiratory effort and begin to right itself on the table before the endotracheal and thoracostomy tubes were removed. […] A 30 to 40% mortality is routinely encountered in the 24 hour perioperative period. For the sham surgery, an incision was made to the chest wall. With great care, ventilation was stopped, the chest was listed with forceps, and a small incision was made in the fourth or fifth intercostal space. If there was any evidence for lung damage, the case was converted to a pneumonectomy. A smaller polyethylene tube was inserted through the same hole and laid between the lung and the chest wall. The ribs were approximated with one or two sutures as appropriate. The remainder of the procedure was identical. The animal was ventilated for several minutes after the chest was closed but before sedation was reversed to make sure that total time under anesthesia was approximately the same as in pneumonectomy cases.\n(§1) One week later, animals were given MCT (dissolved 60 mg/ml in DMSO) as a subcutaneous injection (vehicle animals were treated with the same volume of DMSO alone). They were monitored and allowed ordinary chow and water for 28 days (in the group of animals which were utilized to generate FIG. 2, two of the animals initially treated with pneumonectomy and MCT died spontaneously on days 18 and 23, so the remaining four animals were sacrificed at Day 24).\nExercise capacity was monitored 5 and 10 days after MCT treatment and then more frequently as the disease progressed. Rats were placed on a treadmill (Columbus Instruments) that stimulates them with a mild electric shock when they fail to run. Each assessment lasted for 16 min: 2 min. @ 10 m/min, 4 min @ 15 m/min, 5 min @ 20 m/min, and 5 min @ 25 m/min. The maximum distance run was 305 m. This procedure has been specifically approved by the local IACUC.\nInitially, a grid intensity of 70% maximum and frequency of 2 Hz was used. […]"}, "[2]": {"test_system": "Pneum/MCT rats (rat model of severe pulmonary arterial hypertension)", "experiment": "Treatment of PAH in pneumonectomy + MCT young rat model", "format": "in vivo", "conditions": "bosentan 100 mg/kg daily", "procedure": "All animal studies were approved by the IACUC at the University of Rochester prior to the initiation of any animal experiments. Male Sprague Dawley rats weighing between 200 and 250 g were shaved and then endotracheally intubated with an 18 G angiocatheter after anesthesia with ketamine and xylazine (70 mg/kg ketamine and 50 mg/kg xylazine delivered intraperitoneal in 0.9% saline). Flunixin was administered 0.1 mg/kg SQ at the beginning of the case to provide 24 hours postoperative analgesia. […] The animal was taken off the ventilator and monitored for spontaneous respirations while suction was applied to the thoracostomy tube. […]\nas §1\nExercise capacity was monitored 5 and 10 days after MCT treatment and then more frequently as the disease progressed. […]"}, "[3]": {"test_system": "patients with pulmonary hypertension", "conditions": "cited from earlier work"}}, "data": [{"smiles": "C[C@H]1C(=O)O[C@@H]2CCN3CC=C(COC(=O)[C@](C)(O)[C@]1(C)O)[C@H]23", "note": "[MCT, monocrotaline]", "values": [{"measurement": "(RV + S)/LV", "setting": "[1]; MCT after pneumonectomy", "result": "1.8 ± 0.6"}, {"measurement": "(RV + S)/Weight", "setting": "[1]; MCT after pneumonectomy", "result": "2.7 ± 0.3"}, {"measurement": "LV/Weight", "setting": "[1]; MCT after pneumonectomy", "result": "1.6 ± 0.5"}, {"measurement": "pulmonary pressure (RVSP, mean PA)", "setting": "[1]; MCT after pneumonectomy", "result": "near systemic elevations in pulmonary pressure"}, {"measurement": "(RV + S)/LV", "setting": "[1]; MCT after sham surgery", "result": "1.20 ± 0.3"}, {"measurement": "(RV + S)/Weight", "setting": "[1]; MCT after sham surgery", "result": "1.9 ± 0.4"}, {"measurement": "LV/Weight", "setting": "[1]; MCT after sham surgery", "result": "1.6 ± 0.2"}, {"measurement": "pulmonary pressure (RVSP, mean PA)", "setting": "[1]; MCT following sham surgery", "result": "modest PAH"}, {"measurement": "exercise capacity (16 min treadmill protocol)", "setting": "[1]; Pneum/MCT rats, by day 17 after MCT", "result": "unable to complete the 16 min protocol"}, {"measurement": "exercise capacity (16 min treadmill protocol)", "setting": "[1]; Sham/MCT rats", "result": "consistently completed the exercise protocol"}]}, {"smiles": "COc1ccccc1Oc1c(NS(=O)(=O)c2ccc(C(C)(C)C)cc2)nc(-c2ncccn2)nc1OCCO", "note": "[bosentan]", "values": [{"measurement": "PA pressure", "setting": "[2]", "result": "only a modest elevation in PA pressure"}]}, {"smiles": "CC(=O)CC(c1ccccc1)c1c(O)c2ccccc2oc1=O", "note": "(stereo not shown) [warfarin]", "values": [{"measurement": "survival", "setting": "[3]; Kawut et al., patients also on advanced therapies such as prostacyclin", "result": "survival benefit"}, {"measurement": "mortality at 5 years", "setting": "[3]; Rich et al., prospective observational trial", "result": "decreased mortality"}]}]}
